Read-outs that look alike come from different tables or passages of the source. Bounds are passed on as bounds.

Here are results for two compounds from patent US20200405752A1, “ANTITUMOR AGENT, ANTITUMOR EFFECT ENHANCER, AND ANTITUMOR KIT” (FUJIFILM Corporation, priority 2018, published 2020).

This assay has as its system human pancreatic cancer-derived cell line SUIT-2. The experiment in a line: Cell viability (CellTiter Glo, intracellular ATP) of SUIT-2 in combination with cisplatin or oxaliplatin. The class given is cell-based. The note with it: for viability at 0.0015 µM / viability at 0.0046 µM / viability at 0.0137 µM / viability at 0.0412 µM / viability at 0.1235 µM / viability at 0.3704 µM / viability at 1.1111 µM / viability at 3.3333 µM / viability at 10 µM / viability at 0.001 µM / viability at 0.003 µM / viability at 0.01 µM / viability at 0.03 µM / viability at 0.1 µM / viability at 0.3 µM / viability at 1 µM / viability at 3 µM / IC50: Homo sapiens; for viability at 0.0015 µM / viability at 0.0046 µM / viability at 0.0137 µM / viability at 0.0412 µM / viability at 0.1235 µM / viability at 0.3704 µM / viability at 1.1111 µM / viability at 3.3333 µM / viability at 10 µM / viability at 0.001 µM / viability at 0.003 µM / viability at 0.01 µM / viability at 0.03 µM / viability at 0.1 µM / viability at 0.3 µM / viability at 1 µM / viability at 3 µM: SUIT-2, 72 h, 3 days; for viability at 0.0015 µM / viability at 0.0046 µM / viability at 0.0137 µM / viability at 0.0412 µM / viability at 0.1235 µM / viability at 0.3704 µM / viability at 1.1111 µM / viability at 3.3333 µM / viability at 10 µM / viability at 0.001 µM / viability at 0.003 µM / viability at 0.01 µM / viability at 0.03 µM / viability at 0.1 µM / viability at 0.3 µM / viability at 1 µM / viability at 3 µM / combination index (CI): SUIT-2; for viability at 0.0015 µM: test substance 1.5 nM; for viability at 0.0046 µM: test substance 4.6 nM; for viability at 0.0137 µM: test substance 13.7 nM; for viability at 0.0412 µM: test substance 41.2 nM; for viability at 0.1235 µM: test substance 123.5 nM; for viability at 0.3704 µM: test substance 370.4 nM; for viability at 1.1111 µM: test substance 1111.1 nM; for viability at 3.3333 µM: test substance 3333.3 nM; for viability at 0.001 µM: test substance 1 nM; for viability at 0.003 µM: test substance 3 nM; for viability at 0.01 µM: test substance 10 nM; for viability at 0.03 µM: test substance 30 nM; for viability at 0.1 µM: test substance 100 nM; for viability at 0.3 µM: test substance 300 nM; for viability at 1 µM: test substance 1000 nM; for viability at 3 µM: test substance 3000 nM; for IC50: SUIT-2, SUIT-2, read-out: IC50 value (concentration that inhibits cell viability by 50%); for combination index (CI): CI<1 synergistic. From the text:
Evaluation of antitumor activity against human pancreatic cancer-derived cell line SUIT-2 by combination use of cisplatin and oxaliplatin
Gemcitabine (hereinafter, also referred to as Gem), cisplatin, oxaliplatin, and methanesulfonate of Compound A were used as test substances.
Gemcitabine hydrochloride (manufactured by Plantex Co., Ltd.) dissolved in dimethyl sulfoxide (DMSO) was used as gemcitabine. Cisplatin (Cat. #039-20091, manufactured by Wako Pure Chemical Industries, Ltd.) and oxaliplatin (Cat. #00372, manufactured by Tokyo Chemical Industry Co., Ltd.), each of which dissolved in serum-free RPMI-1640 medium (Cat. #11875-119, manufactured by Thermo Fisher Scientific Inc.), were used as cisplatin and oxaliplatin, respectively.
Human pancreatic cancer cell line SUIT-2 cells were subcultured in RPMI-1640 medium supplemented with 10% serum (Cat. #10437-028, manufactured by Thermo Fisher Scientific Inc.). During this test, all cell cultures were carried out in a CO2 incubator (set to 37° C. and 5% CO2, saturated with water vapor). The culture was diluted with a 10% serum-supplemented medium to a cell density of 15000 cells/well/100 μL and the cells were seeded on a 96-well plate. On the next day, the culture supernatant of each well was discarded, followed by washing twice with 150 μL of serum-free medium, and 100 μL of serum-free medium was added thereto, followed by culturing for 3 days.
The methanesulfonate of Compound A and gemcitabine were dissolved in DMSO to prepare 100 mmol/L DMSO solutions thereof. The thus-prepared DMSO solutions were diluted sequentially with DMSO to prepare DMSO solutions having a final treatment concentration of 1000-fold dilution. Cisplatin and oxaliplatin were dissolved in serum-free medium to prepare a cisplatin solution 30 μmol/L and an oxaliplatin solution 60 μmol/L, respectively. The DMSO diluted solutions of Compound A and gemcitabine were diluted with the cisplatin solution (30 μmol/L) or the oxaliplatin solution (60 μmol/L) to prepare treatment liquids having a final treatment concentration of 6-fold dilution. Compound A and gemcitabine were used with a maximum concentration of 10 μmol/L at a common ratio of 1/3 and 9 concentrations in combination with cisplatin or oxaliplatin.
20 μL of Compound A or gemcitabine diluted with the cisplatin solution (30 μmol/L) or the oxaliplatin solution (60 μmol/L) was added to each well. In addition, a group in which only a solvent containing no drug was added to wells in which cells were seeded (positive control), and a group in which only a solvent containing no drug was added to wells containing only a medium (negative control) were provided. All groups were set to n=3 well.
The cells were cultured for 3 days after the addition of the drug, and the cell viability was evaluated using a CellTiter Glo (registered trademark) Reagent (Cat. #G7570, manufactured by Promega Corporation) with the intracellular ATP level as an index. The concentration that inhibits cell viability by 50% (IC50 value) was calculated using XLFit software Ver.3 (registered trademark, manufactured by CTC Laboratory Systems Corporation).
The cell viability of each well was determined with the luminescence signal level of the negative control being 0% cell viability and the luminescence signal level of the positive control being 100% cell viability. The average value and standard deviation of the cell viability of each treatment group were calculated to prepare Table 1 and Table 2.
On the combinational effect of the embodiment of the invention, the results of evaluation using a combination index (CI) which is a quantitative index of the combinational effect are shown. The CI can be calculated by the following equation according to Cancer Research, 2010, Vol. 70, pp. 440 to 446.
That is, in a case where the drugs to be used in combination are drug 1 and drug 2, the CI at a certain drug concentration is […]
Background: Cellular ATP, detected with luciferase, serves as a proxy for viable cell number.

Where [1] appears, read: with cisplatin 5 μmol/L, test substance 10000.0 nM.
Where [2] appears, read: with oxaliplatin 10 μmol/L, test substance 10000 nM.
[3] abbreviates: used in combination with cisplatin (5 μmol/L, Table 1).
The mark [4] stands for this setting: used in combination with oxaliplatin (10 μmol/L, Table 2).

For the compound `Nc1ccn([C@@H]2O[C@H](CO)[C@@H](O)C2(F)F)c(=O)n1` [Gemcitabine], where the note is “with cisplatin 5 μmol/L”, the viability at 0.0015 µM was 98%, the viability at 0.0046 µM turned out to be 97%, the viability at 0.0137 µM came out at 99% and the viability at 0.0412 µM is 94%. Where the note is “with cisplatin 5 μmol/L”, the viability at 0.1235 µM worked out at 82%, the viability at 0.3704 µM came out at 73%, the viability at 1.1111 µM stood at 54% and the viability at 3.3333 µM was determined as 32%. Moreover, under setting [1], the viability at 10 µM is 22%. In addition, under “with oxaliplatin 10 μmol/L”, the viability at 0.001 µM amounted to 98%, the viability at 0.003 µM turned out to be 102%, the viability at 0.01 µM was 97% and the viability at 0.03 µM is 97%. Where the note is “with oxaliplatin 10 μmol/L”, the viability at 0.1 µM came to 101%, the viability at 0.3 µM turned out to be 96%, the viability at 1 µM turned out to be 89% and the viability at 3 µM was found to be 80%. Under setting [2], the viability at 10 µM turned out to be 61%. Also, under setting [3], the IC50 turned out to be 1140 nM. The IC50 under setting [4] was not below 10000 nM. Also, for the setting “combination with cisplatin”, the “combination index (CI)” value is recorded as 0.96. Moreover, the “combination index (CI)” value (combination with oxaliplatin) is 0.97.
With `Nc1ccn([C@@H]2S[C@H](CO)[C@@H](O)[C@@H]2F)c(=O)n1` [Compound A, 1-(2-deoxy-2-fluoro-4-thio-β-D-arabinofuranosyl)cytosine], where the note is “with cisplatin 5 μmol/L”, the viability at 0.0015 µM was 96%, the viability at 0.0046 µM was found to be 80%, the viability at 0.0137 µM stood at 47% and the viability at 0.0412 µM was 33%. Also, where the note is “with cisplatin 5 μmol/L”, the viability at 0.1235 µM is 28%, the viability at 0.3704 µM turned out to be 28%, the viability at 1.1111 µM came out at 26% and the viability at 3.3333 µM turned out to be 27%. Moreover, under setting [1], the viability at 10 µM was 30%. Moreover, where the note is “with oxaliplatin 10 μmol/L”, the viability at 0.001 µM was 94%, the viability at 0.003 µM turned out to be 93%, the viability at 0.01 µM was 87% and the viability at 0.03 µM stood at 60%. Besides, for the setting “with oxaliplatin 10 μmol/L”, the viability at 0.1 µM came to 46%, the viability at 0.3 µM stood at 41%, the viability at 1 µM turned out to be 38% and the viability at 3 µM is 39%. Under setting [2], the viability at 10 µM was found to be 38%. The IC50 under setting [3] was determined as 12.9 nM. In addition, under setting [4], the IC50 turned out to be 73.4 nM. In addition, the “combination index (CI)” value (combination with cisplatin) stood at 0.36. The “combination index (CI)” value (combination with oxaliplatin) is listed as 0.44.

What is called viability is a read-out of living cells in per cent, often relative to untreated cells.
